Experimental data as given in ChEMBL document CHEMBL5346962, “Discovery of Sulanemadlin (ALRN-6924), the First Cell-Permeating, Stabilized α-Helical Peptide in Clinical Development” (J Med Chem, 2023).
Calls of active or inactive are those of the source. The rule behind the calls is not given here.

How the values were obtained:
[1] = Cmax in cynomolgous monkey at 10 mg/kg by LC-MS/MS analysis; format: ADME, organism-based, Macaca fascicularis; design: dose 10 mg/kg; details: cynomolgus monkey, in vivo
[2] = Half life in rat at 5 mg/kg by LC-MS/MS analysis; format: ADME, organism-based; details: in vivo
[3] = Plasma protein binding in monkey at 2 to 50 uM; format: ADME, cell-free, Macaca mulatta; details: rhesus monkey, dose 2-50 µM, read-out: PPB (converted)
[4] = Cmax in rat at 5 mg/kg by LC-MS/MS analysis; format: ADME, organism-based; design: dose 5 mg/kg; details: in vivo
[5] = Induction of cell cycle arrest in human CD34+ cells assessed as accumulation at S phase at 1 uM incubated for 24 hrs by flow cytometry (reference value: 27.5 +/- 5.8%); format: toxicity, cell-based; details: cd34-positive (myeloid/lymphoid) cell
[6] = system: MCF7; assay: Antitumor activity against human MCF7 cells xenografted in athymic nude BALB/c mouse assessed as upregulation of p21 protein level at 20 mg/kg, iv by immunohistochemical analysis; format: functional, organism-based; details: time <= 48.0 hrs, TDE = time-dependent effect
[7] = system: BT-474; assay: […] chemotherapy-induced apoptosis in human BT-474 cells assessed as decrease in caspase-3/7 level at 4.6 to 10 uM preincubated for 16 hrs followed by docetaxel addition measured after 32 hrs; format: functional, cell-based; details: dose 4.6-10 µM, time 48.0 hrs
[8] = system: MCF7; assay: Antitumor activity against human MCF7 cells xenografted in athymic nude BALB/c mouse assessed as decrease in BrdU incorporation at 20 mg/kg, iv by immunohistochemical analysis; format: functional, organism-based; details: time <= 48.0 hrs, TDE = time-dependent effect
[9] = Plasma protein binding in human assessed as unbound fraction at >200 uM; format: ADME, cell-free
[10] = AUC (all) in rat at 2.5 mg/kg by LC-MS/MS analysis; format: ADME, organism-based; design: dose 2.5 mg/kg; details: in vivo
[11] = system: Fibroblast; assay: Protection against chemotherapy-induced apoptosis in human fibroblast assessed as decrease in caspase-3/7 level preincubated for 16 hrs followed by doxorubicin addition measured after 32 hrs; format: functional, cell-based; details: dose 4.6-10 µM, time 48.0 hrs
[12] = system: NCI-H211; assay: Antitumor activity against human NCI-H211 cells xenografted in athymic nu/nu mouse assessed as reduction in tumor volume at 8 mg/kg administered on day 0 to 4 and co-administered 30 mins prior to topotecan on day 1 to 4 followed by topotecan administration on day 5 measured for 90 days; format: functional, organism-based; details: time 90.0 day
[13] = system: BT-474; assay: […] chemotherapy-induced apoptosis in human BT-474 cells assessed as decrease in caspase-3/7 level at 4.6 to 10 uM preincubated for 16 hrs followed by doxorubicin addition measured after 32 hrs; format: functional, cell-based; details: dose 4.6-10 µM, time 48.0 hrs
[14] = Half life in mouse at 5 mg/kg by LC-MS/MS analysis; format: ADME, organism-based; details: in vivo
[15] = system: Fibroblast; assay: Protection against chemotherapy-induced apoptosis in human fibroblast assessed as decrease in caspase-3/7 level preincubated for 16 hrs followed by vinblastine addition measured after 32 hrs; format: functional, cell-based; details: dose 4.6-10 µM, time 48.0 hrs
[16] = system: Fibroblast; assay: Protection against chemotherapy-induced apoptosis in human fibroblast assessed as decrease in caspase-3/7 level preincubated for 16 hrs followed by actinomycin D addition measured after 32 hrs; format: functional, cell-based; details: dose 4.6-10 µM, time 48.0 hrs
[17] = Induction of cell cycle arrest in human CD34+ cells at 1 uM incubated for 24 hrs followed by compound wash-out and addition of fresh-medium containing compounds measured after 24 hrs by flow cytometry; format: toxicity, cell-based; details: cd34-positive (myeloid/lymphoid) cell, 48 h
[18] = system: Mus musculus; assay: Protection against topotecan-induced neutropenia in C57BL/6 mouse assessed as increase in neutrophil level at 2.4 mg/kg administered on day 0 to 4 and co-administered 30 mins prior to topotecan on day 1 to 4 followed by topotecan administration on day 5 measured on day 7 by CBC analysis relative to control; format: functional; details: time 7 day
[19] = system: Mus musculus; assay: Protection against topotecan-induced crypt loss in gastrointestinal tract of C57BL/6 mouse at 2.4 mg/kg administered on day 0 to 4 and co-administered 30 mins prior to topotecan on day 1 to 4 followed by topotecan administration on day 5 measured on day 9 by H&E staining based analysis; format: functional, organism-based; details: time 9.0 day
[20] = AUC (all) in mouse at 5 mg/kg by LC-MS/MS analysis; format: ADME, organism-based; design: dose 5 mg/kg; details: in vivo
[21] = system: SJSA-1; assay: Cytotoxicity against human SJSA-1 cells incubated for 72 hrs in presence of 10% FBS by MTT assay; details: SJSA-1, 72 h
[22] = system: MV4-11; assay: Antitumor activity against human MV4-11 cells xenografted in athymic nu/nu mouse model of AML assessed as tumor growth inhibition; format: functional, cell-based
[23] = system: NCI-H69; assay: Antitumor activity against human NCI-H69 cells xenografted in athymic nu/nu mouse assessed as reduction in tumor volume at 8 mg/kg administered on day 0 to 4 and co-administered 30 mins prior to topotecan on day 1 to 4 followed by topotecan administration on day 5 measured for 60 days; format: functional, organism-based; details: time 60.0 day
[24] = system: SJSA-1; assay: Antitumor activity against human SJSA-1 cells xenografted in athymic nu/nu mouse […] assessed as tumor growth inhibition administered intravenously twice a week measured for 15 days; format: functional, cell-based; details: dose 5-20 mg/kg, route iv, time 15.0 day
[25] = system: Bone marrow cell; assay: Protection against cell cycle arrest at S phase in bone marrow cells of C57BL/6 mouse at 10 mg/kg, iv measured for 8 hrs by FACS analysis; format: functional, organism-based
[26] = AUC (0 to 24 hrs) in plasma of athymic nu/nu mouse xenografted with human SJSA-1 cells at 25 mg/kg, iv measured for 24 hrs by LC-MS-MS analysis; format: ADME, organism-based; design: time 24 hrs, dose 25 mg/kg, route iv; details: in vivo
[27] = system: Fibroblast; assay: Protection against chemotherapy-induced apoptosis in human fibroblast assessed as decrease in caspase-3/7 level preincubated for 16 hrs followed by carboplatin addition measured after 32 hrs; format: functional, cell-based; details: dose 4.6-10 µM, time 48.0 hrs
[28] = system: MCF7; assay: Antitumor activity against human MCF7 cells xenografted in athymic nude BALB/c mouse assessed as tumor regression at 20 mg/kg, iv measured upto 48 hrs by immunohistochemical analysis; format: functional, organism-based
[29] = Clearance in rat at 10 mg/kg by LC-MS/MS analysis; format: ADME, organism-based; details: in vivo
[30] = system: MCF7; assay: Antitumor activity against human MCF7 cells xenografted in athymic nude BALB/c mouse assessed as upregulation of p53 protein level at 20 mg/kg, iv by immunohistochemical analysis; format: functional, organism-based; details: time <= 48.0 hrs, TDE = time-dependent effect
[31] = Plasma protein binding in mouse at 250 uM; format: ADME, cell-free; details: read-out: PPB (converted)
[32] = system: Mus musculus; assay: Upregulation of p21 expression level in gastrointestinal tract of C57BL/6 mouse at 2.4 mg/kg, iv administered every 8 hrs measured for 16 hrs by immunohistochemical analysis; format: functional, organism-based
[33] = Solubility of the compound in aqueous solution at pH 7.5 incubated for 1 hr by spectrophotometric analysis; format: physicochemical
[34] = Plasma protein binding in human assessed as unbound fraction upto 150 uM; format: ADME, cell-free
[35] = Cmax in cynomolgous monkey at 5 mg/kg by LC-MS/MS analysis; format: ADME, organism-based, Macaca fascicularis; design: dose 5 mg/kg; details: cynomolgus monkey, in vivo
[36] = Clearance in mouse at 5 mg/kg by LC-MS/MS analysis; format: ADME, organism-based; details: in vivo
[37] = Half life in cynomolgous monkey at 5 mg/kg by LC-MS/MS analysis; format: ADME, organism-based, Macaca fascicularis; details: cynomolgus monkey, in vivo
[38] = system: Fibroblast; assay: Protection against chemotherapy-induced apoptosis in human fibroblast assessed as decrease in caspase-3/7 level preincubated for 16 hrs followed by paclitaxel addition measured after 32 hrs; format: functional, cell-based; details: dose 4.6-10 µM, time 48.0 hrs
[39] = system: SJSA-1; assay: Antitumor activity against human SJSA-1 cells xenografted in athymic nu/nu mouse […] assessed as tumor growth inhibition administered intravenously thrice a week measured for 15 days; format: functional, cell-based; details: dose 13.3 mg/kg, route iv, time 15.0 day

Question: Which results are given for `CC(=O)N[C@@H](CC(C)C)C(=O)N[C@H](C(=O)N[C@@H](Cc1ccccc1)C(=O)N[C@]1(C)CCCCCC/C=C/CCC[C@@](C)(C(=O)N[C@@H](C)C(=O)N[C@@H](C)C(=O)N[C@@H](C)C(=O)N[C@@H](C)C(=O)N[C@@H](C)C(=O)N[C@H](C)C(N)=O)NC(=O)[C@H](CC(C)C)NC(=O)[C@H](CCC(N)=O)NC(=O)[C@H](C)NC(=O)[C@H](Cc2c[nH]c3ccccc23)NC(=O)[C@H](Cc2ccc(O)cc2)NC(=O)[C@H](CCC(=O)O)NC1=O)[C@@H](C)O`?
Answer: Cmax [1]: 236 µg/mL; half-life [2]: 2 h; fraction unbound at up to 50 µM [3]: 0.08; Cmax [4]: 95.9 µg/mL; Activity [5]: 4.23%; Activity [6]: Tde; Activity [7]: inactive; Activity [8]: Tde; fraction unbound [9]: 0.12; AUC [10]: 90.5 µg·h/mL; Activity [11]: Dose-Dependent Effect; Activity [12]: Active; Activity [13]: inactive; half-life [14]: 2.2 h; Activity [15]: Dose-Dependent Effect; Activity [16]: Dose-Dependent Effect; Activity [17]: Non-Toxic; Activity [18]: 84%; Activity [19]: Active; AUC [20]: 450 µg·h/mL; EC50 [21]: 300 nM; Activity [22]: Dose-Dependent Effect; Activity [23]: Active; Activity [24]: Dose-Dependent Effect; Activity [25]: Active; AUC [26]: 3180 µg·h/mL; Activity [27]: Dose-Dependent Effect; Activity [28]: inactive; clearance [29]: 0.317 mL/min/kg; Activity [30]: Tde; fraction unbound at 250 µM [31]: 0.02; Activity [32]: Active; solubility at 1 h [33]: ≤ 75 µg/mL; fraction unbound at up to 150 µM [34]: 0.03; Cmax [35]: 137 µg/mL; clearance [36]: 0.183 mL/min/kg; half-life [37]: 4.9 h; Activity [38]: Dose-Dependent Effect; Activity [39]: Dose-Dependent Effect
